# Source: PMC12074795, “Synthesis and biological evaluation of esterified anti-inflammatory drugs with ethylene glycol linkers: cytotoxicity, anti-inflammatory and antioxidant properties” (Royal Society Open Science, 2025)
# Like-named read-outs stand apart in the source and are kept apart here.
# How the values were obtained:
# [1] = DPPH radical scavenging test; assay type: biochemical; conditions: 517 nm, 30 min
# Protocol: The in vitro antioxidant ability of the compounds synthesized in this work was evaluated using three different assays, including (i) the ABTS radical cation reduction-decolorization test, which uses the technique of Khan et al. consisting of the reduction of the cation radical by an antioxidant through the discoloration measured by absorption at the wavelength of 734 nm; (ii) interaction with the stable free radical DPPH, based on Bassene’s method, in which the scavenging of DPPH radicals is carried out by a colorimetric method consisting of the reduction of the DPPH radical, determined by its absorption at a wavelength of 517 nm; and (iii) the FRAP test according to the protocol of Path Canada, based on the ability of a substance to reduce Fe^3+ ions to Fe^2+ ions, which, in the presence of 1,10-phenanthroline, form a red-orange complex whose optical density can be measured at 505 nm.
# The DPPH radical trapping protocol is based on Bassene’s method, modified for colorimetric analysis. DPPH is a stable purple organic nitrogen radical that absorbs light at 517 nm. When an anti-free radical agent is present, DPPH is reduced to a stable yellow compound, indicated by a loss of colour between 470 and 517 nm. A 0.02% DPPH solution was made with ethanol and stored in a sealed jar in the dark. Stock solutions of the synthesized compounds were prepared by dissolving 100 mg of each in 1 ml of DMSO, and the final concentration of DMSO concentration in the first well was 0.5%. These stocks were then diluted to achieve concentrations (500, 250, 125, 62.5, 31.25, 15.625 and 7.8125)/Mi in mM (Mi: molecular weight of each synthetic compound). Each dilution (25 µl) was put to the wells and 75 µl of the DPPH solution (0.02%) were added. Optical densities were measured at 517 nm after 30 min of incubation in the dark. The negative control used DPPH alone, while the positive control used gallic acid treated with solutions of the synthesized compounds at final concentrations (50, 25, 12.5, 6.25, 3.125, 1.5625 and 0.78125)/Mi in mM. Synthesized compounds were also tested alone to assess fluorescence.
# Assays were performed in duplicate, and results were averaged. Percentage inhibition (PI), reflecting the antioxidant activity related to the DPPH˙ radical scavenging effect, was calculated using the following formula:
# (PI)=Acontrol−Atest/Acontrol×100,
# where Acontrol = absorbance of the control sample and Atest = absorbance of the tested sample.
# The percentages of scavenging or 50% reduction were calculated using gallic acid as a standard for 100% reduction. The concentration of radical scavengers needed to neutralize 50% of free radicals, referred to as SC50, was determined using GraphPad Prism 8.0.1 software (244).
# [2] = Cell viability (MTT) assay on macrophages in primary culture; assay type: cell-based; conditions: Wistar, mouse, peritoneal macrophages in primary culture, concentrations 2.41 × 10^–4 to 2.41 mM, read-out: half cytotoxic concentration (IC50)
# Protocol: The inflammatory response is part of the body’s first line of defence against a pathogen. Macrophages are one of the most studied inflammatory cells due to their high involvement in this inflammatory process. The recognition of an antigenic motif by a toll-like receptor on macrophages leads to a cascade of molecular signalling to the synthesis of pro-inflammatory mediators such as NO to eliminate the pathogen. First, the effect of the compounds on cell viability was assessed by measuring the cytotoxicity of the compounds in cell culture using the MTT assay at concentrations ranging from 2.41 × 10^–4 to 2.41 mM (figure 1).
# Peritoneal macrophages were isolated from four eight-week-old, 25 g Wistar mice by intraperitoneal injection of 0.5 ml of 2% starch solution (inflammatory agent) to stimulate their production. Four days later, the animals were sacrificed, and 5 ml of phosphate buffered saline (PBS) buffer (0.1 M, pH 7.4) was injected into their peritoneal cavity with a syringe. […]
# The effect of the solutions of synthetic compounds on the viability of macrophages in primary culture was determined by using the MTT as previously described in the literature. […] Finally, the absorbance of the purple solution was read at 630 nm against the acidified isopropanol solution. The percentage of cell viability was calculated using the following formula: […]
# [3] = first replicate, read-out: DPPH SC50(1)
# [4] = mean of duplicate, read-out: DPPH mean SC50
# [5] = second replicate, read-out: DPPH SC50(2)
Compound,"EC50 [1, 3]","EC50 [1, 4]","EC50 [1, 5]",IC50 at 3 h [2]
"O=C(/C=C/c1ccccc1)OCCOC(=O)c1ccccc1O [Compound 12, (E)-2-(cinnamoyloxy)ethyl 2-hydroxybenzoate]",8.63 mM,8.68 mM,8.73 mM,–
"CC(C)Cc1ccc(C(C)C(=O)O)cc1 (stereo not drawn) [Compound 1, ibuprofen, reference compound]",9.81 mM,10 mM,10.2 mM,–
"CC(C)Cc1ccc(C(C)C(=O)OCCO)cc1 (stereo not drawn) [Compound 3, 2-hydroxyethyl 2-(4-isobutylphenyl)propanoate]",10.5 mM,10.4 mM,10.4 mM,–
"O=C(O)/C=C/c1ccccc1 [Compound 11, cinnamic acid, reference compound]",11.1 mM,11 mM,10.9 mM,–
"O=C(OCCO)c1ccccc1O [Compound 7, 2-hydroxyethyl 2-hydroxybenzoate]",12.2 mM,12.1 mM,12.1 mM,–

# Stronger by EC50 [1, 3], values ahead:
"EC50 [1, 3]","EC50 [1, 4]","EC50 [1, 5]",Compound,IC50 at 3 h [2]
6.64 mM,6.13 mM,6.68 mM,"CC(C)Cc1ccc(C(C)C(=O)OCCOC(=O)C=Cc2ccccc2)cc1 (stereo not drawn) [Compound 14, 2-((2-(4-isobutylphenyl)propanoyl)oxy)ethyl cinnamate]",–
6.61 mM,–,6.46 mM,"O=C(OCCOC(=O)c1ccccc1O)c1ccccc1O [Compound 13, Ethane-1,2-diyl bis(2-hydroxybenzoate)]",–
5.82 mM,5.79 mM,5.77 mM,CCCCCCCCCCCC(=O)OCCOC(=O)c1ccccc1O [DEW4a],–
5.05 mM,4.92 mM,4.78 mM,"CC(C)Cc1ccc(C(=O)OCCOC(=O)C(C)c2ccc(CC(C)C)cc2)cc1 (stereo not drawn) [Compound 2, 2-((2-(4-isobutylphenyl)propanoyl)oxy)ethyl 4-isobutylbenzoate]",4.9 mM
3.5 mM,3.52 mM,3.53 mM,"CCCCCCCCCCCC(=O)OCCOC(=O)C(C)c1ccc(CC(C)C)cc1 (stereo not drawn) [Compound 5a, 2-((2-(4-isobutylphenyl)propanoyl)oxy)ethyl dodecanoate]",–
